We go through 23 compounds from patent publication US6841682B2, “Heterocycles useful in the treatment of benign prostatic hyperplasia” (Janseen Pharmaceutica N.V., priority 1997, dated 2005).

One experiment concerns the target T1, α1b-AR (Homo sapiens, UniProt P35368).
T1 construct: expressed in transfected cells; host or cells: COS cells (pcDNA3 vector, DEAE-dextran transient transfection); membrane preparation
T1 sequence (P35368 1-520): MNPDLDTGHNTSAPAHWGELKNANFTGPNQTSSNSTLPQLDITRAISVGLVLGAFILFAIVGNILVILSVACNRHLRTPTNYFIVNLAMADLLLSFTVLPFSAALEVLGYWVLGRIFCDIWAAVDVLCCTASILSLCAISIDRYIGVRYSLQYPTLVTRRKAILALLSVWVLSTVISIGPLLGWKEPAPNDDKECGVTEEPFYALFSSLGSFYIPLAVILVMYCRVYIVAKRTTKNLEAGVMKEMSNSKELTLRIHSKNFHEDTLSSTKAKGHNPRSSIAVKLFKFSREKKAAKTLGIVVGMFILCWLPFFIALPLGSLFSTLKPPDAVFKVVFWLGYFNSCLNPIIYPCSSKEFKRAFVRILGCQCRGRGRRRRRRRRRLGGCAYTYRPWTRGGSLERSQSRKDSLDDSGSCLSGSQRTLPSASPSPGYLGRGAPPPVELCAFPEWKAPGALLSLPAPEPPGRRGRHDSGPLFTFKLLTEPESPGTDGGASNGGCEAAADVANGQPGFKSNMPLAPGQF
The experiment can be described thus: radioligand ([125I]-HEAT) receptor binding assay, COS cell membranes, α1b-AR. Conditions: Tables A-J; [125I]-HEAT 50 pM, COS membranes; read-out: α1b IC50. An excerpt:
(§1) The first assay tested the ability of compounds of Formula I to bind to membrane bound receptors α1a-AR, α1b-AR and α1d-AR.
(§2) The DNA sequences of the three cloned human α1-AR subtypes have been published. […] We used published DNA sequence information to design-primers for use in RT-PCR amplification of each subtype to obtain cloned cDNAs. Human poly A+ RNA was obtained from commercially available sources and included hippocampus and prostate samples, sources which have been cited in the literature. For the primary screen a radio ligand binding assay was used which employed membrane preparations from cells expressing the individual cloned receptor cDNAs. Radiolabeled ligands with binding activity on all three subtypes (non-selective) are commercially available ([125I]-HEAT, [3H]-prazosin).
(§3) Each α1 receptor subtype was cloned from poly A+ RNA by the standard method of reverse transcription-polymerase chain reaction (RT-PCR). The following sources of polyA+ RNA were used for the cloning of the al receptor subtypes: α1a-AR, human hippocampus and prostate, α1b-AR, human hippocampus, α1d-AR, human hippocampus. The resulting cDNAs were cloned into the pcDNA3 mammalian expression vector (Invitrogen Corp., San Diego Calif.). Each DNA was sequenced for verification and to detect any possible mutations introduced during the amplification process. Any deviation in sequence from the published consensus for each receptor subtype was corrected by site-directed mutagenesis.
(§4) The three α1-AR subtypes (a, b, d) were transfected into COS cells using a standard DEAE-dextran procedure with a chloroquine shock. In this procedure, each tissue culture dish (100 mm) was inoculated with 3.5×10^6 cells and transfected with 10 μg of DNA. Approximately 72 hours post-transfection, the cells were harvested and COS membranes were prepared. Transfected COS cells from 25 plates (100 mm) were scraped and suspended in 15 mL of TE buffer (50 mM Tris-HCl, 5 mM EDTA, pH7.4). The suspension was disrupted with a homogenizer. It was then centrifuged at 1000×g for 10 minutes at 4° C. The supernatant was centrifuged at 34,500×g for 20 minutes at 4° C. The pellet was resuspended in 5 mL TNE buffer (50 mM Tris-HCl, 5 mM EDTA, 150 mM NaCl, pH7.4). The resulting membrane preparation was aliquoted and stored at −70° C. The protein concentration was determined following membrane solubilization with TritonX-100.
(§5) The ability of each compound to bind to each of the α1-AR subtypes was assessed in a receptor binding assay. [125I]-HEAT, a non-selective α1-AR ligand, was used as the radiolabeled ligand. Each well of a 96-well plate received: 140 μL TNE, 25 μL [125I]-HEAT diluted in TNE (50,000 cpm; final concentration 50 pM), 10 μL test compound diluted in DMSO (final concentration 1 pM-10 μM), […] COS cell membrane preparation expressing one of the three α1-AR subtypes (0.05-0.2 mg membrane protein). The plate was incubated for 1 hour at room temperature and the reaction mixtures were filtered through a Packard GF/C Unifilter filter plate. The filter plate was dried for 1 hour in a vacuum oven. Scintillation fluid ([…]) was added to each well, and the filter plate was counted in a Packard Topcount scintillation counter. Data was analyzed using GraphPad Prism software.
(§6) Tables A-J list the IC50 values expressed in nanomolar concentration for select compounds of the invention in all receptor subtypes.

The next experiment concerns the target T2, α1d-AR (Homo sapiens, UniProt P25100).
T2 construct: expressed in transfected cells; host or cells: COS cells (pcDNA3 vector, DEAE-dextran transient transfection); membrane preparation
T2 sequence (P25100 1-572): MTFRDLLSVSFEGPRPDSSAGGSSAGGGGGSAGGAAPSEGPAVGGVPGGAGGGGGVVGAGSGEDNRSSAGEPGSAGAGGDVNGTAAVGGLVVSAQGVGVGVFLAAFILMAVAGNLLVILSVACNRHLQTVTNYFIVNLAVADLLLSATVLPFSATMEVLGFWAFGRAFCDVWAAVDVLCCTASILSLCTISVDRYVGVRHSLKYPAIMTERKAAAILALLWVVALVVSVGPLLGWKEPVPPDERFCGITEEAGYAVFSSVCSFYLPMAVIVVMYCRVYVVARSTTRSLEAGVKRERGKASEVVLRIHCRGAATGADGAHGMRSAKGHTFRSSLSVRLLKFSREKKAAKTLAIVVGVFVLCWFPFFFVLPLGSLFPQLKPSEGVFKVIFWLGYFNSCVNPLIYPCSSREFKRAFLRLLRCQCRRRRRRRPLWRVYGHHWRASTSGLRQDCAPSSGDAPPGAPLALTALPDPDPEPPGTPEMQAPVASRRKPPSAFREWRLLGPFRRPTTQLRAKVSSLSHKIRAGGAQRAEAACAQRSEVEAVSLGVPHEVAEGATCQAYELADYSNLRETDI
Description: radioligand ([125I]-HEAT) receptor binding assay, COS cell membranes, α1d-AR. The following applies: Tables A-J, [125I]-HEAT 50 pM.
From the text: as §1, §2, §3, §4, §5, §6

A further experiment addresses T3, α1a-AR (Homo sapiens, UniProt P35348).
T3 construct: expressed in transfected cells; host or cells: COS cells (pcDNA3 vector, DEAE-dextran transient transfection); membrane preparation
T3 sequence (P35348 1-466): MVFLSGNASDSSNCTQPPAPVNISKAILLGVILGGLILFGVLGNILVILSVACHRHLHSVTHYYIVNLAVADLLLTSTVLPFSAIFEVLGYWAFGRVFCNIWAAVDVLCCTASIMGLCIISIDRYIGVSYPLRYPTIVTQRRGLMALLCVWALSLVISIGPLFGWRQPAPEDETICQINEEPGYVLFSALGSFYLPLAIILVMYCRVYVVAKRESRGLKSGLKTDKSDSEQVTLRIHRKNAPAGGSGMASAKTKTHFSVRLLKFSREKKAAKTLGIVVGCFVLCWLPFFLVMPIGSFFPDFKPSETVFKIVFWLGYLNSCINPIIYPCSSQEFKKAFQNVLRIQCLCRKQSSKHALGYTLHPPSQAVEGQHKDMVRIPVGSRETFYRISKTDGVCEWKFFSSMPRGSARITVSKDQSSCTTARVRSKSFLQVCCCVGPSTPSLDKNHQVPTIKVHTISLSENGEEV
Description: radioligand ([125I]-HEAT) receptor binding assay, COS cell membranes, α1a-AR. Conditions: Tables A-J; [125I]-HEAT 50 pM, COS membranes; read-out: α1a IC50.
From the text: as §1
The DNA sequences of the three cloned human α1-AR subtypes have been published. […] We used published DNA sequence information to design-primers for use in RT-PCR amplification of each subtype to obtain cloned cDNAs. Human poly A+ RNA was obtained from commercially available sources and included hippocampus and prostate samples, sources which have been cited in the literature. For the primary screen a radio ligand binding assay was used which employed membrane preparations from cells expressing the individual cloned receptor cDNAs.
as §3, §4
The ability of each compound to bind to each of the α1-AR subtypes was assessed in a receptor binding assay. […] The plate was incubated for 1 hour at room temperature and the reaction mixtures were filtered through a Packard GF/C Unifilter filter plate. The filter plate was dried for 1 hour in a vacuum oven. Scintillation fluid ([…]) was added to each well, and the filter plate was counted in a Packard Topcount scintillation counter. Data was analyzed using GraphPad Prism software.

Structures are written as SMILES. Where only a bound is given, the exact number is not on record here.

On to `COc1ccccc1N1CCN(Cc2cccc(CN3CCCC3=O)n2)CC1` [compound 43], for which the results for the IC50 at α1b-AR, at α1d-AR and on α1a-AR were 2.64 µM, 1560 nM and 7720 nM, respectively.

In the case of `COc1ccccc1N1CCN(Cc2cccc(CN3CCCCCCC3=O)n2)CC1` [compound 44], the IC50 came out at 3.94 µM on α1b-AR, 577 nM on α1d-AR and 2030 nM on α1a-AR.

In the case of `CC(C)Oc1ccccc1N1CCN(Cc2nc(CN3CCCCC3=O)co2)CC1` [Compound 12], the IC50 at α1b-AR is over 10 µM; on α1d-AR it was over 10000 nM; on α1a-AR, 4640 nM.

In the case of `CC(C)Oc1ccccc1N1CCN(Cc2ncc(CN3CCCC3=O)s2)CC1` [Compound 17], the results for the IC50 at α1b-AR, at α1d-AR and at α1a-AR were 3.47 µM, 79 nM and 2.5 nM, respectively.

Turning to `CC(C)Oc1ccccc1N1CCN(Cc2cccc(CN3C(=O)CCCC3c3ccccc3)n2)CC1` (centres unmarked) [compound 47], the IC50 on α1b-AR was 3.32 µM; on α1d-AR, 291 nM; at α1a-AR, 147 nM.

In the case of `COc1ccccc1N1CCN(Cc2cccc(CN3CCCCCC3=O)n2)CC1` [compound 42], the IC50 at α1b-AR was 1.42 µM; on α1d-AR it was 526 nM; on α1a-AR it was 8590 nM.

For the compound `CC(C)Oc1ccccc1N1CCN(Cc2cc(CN3CCCCC3=O)on2)CC1` [Compound 8], the IC50 on α1d-AR was found to be 272 nM; on α1a-AR it was 3.8 nM.

On to `CC(C)Oc1ccccc1N1CCN(Cc2cc(CN3CCCC3=O)cs2)CC1` [Compound 32], for which the IC50 is 0.62 µM at α1b-AR, 24 nM on α1d-AR and 0.83 nM at α1a-AR.

With `COc1ccccc1N1CCN(Cc2ccc(CN3CCCC3=O)s2)CC1` [Compound 23], the IC50 at α1b-AR is over 10 µM; on α1d-AR, 46 nM; at α1a-AR, 80 nM.

Turning to `CC(C)Oc1ccccc1N1CCN(Cc2cc(CN3CCCCCC3=O)cs2)CC1` [compound 56], the results for the IC50 at α1b-AR, at α1d-AR and on α1a-AR were 1.23 µM, 95 nM and 3.7 nM, respectively.

With `CC(C)Oc1ccccc1N1CCN(CC2=NOC(CN3CCCCC3=O)C2)CC1` (centres unmarked) [Compound 9], the half-maximal inhibitory concentration (IC50) on α1b-AR was over 10 µM; at α1d-AR it was 1520 nM; at α1a-AR it was 89 nM.

For the compound `CC(C)Oc1ccccc1N1CCN(Cc2cc(CN3CCCC3=O)no2)CC1` [Compound 28], the IC50 was over 5.98 µM at α1b-AR, 131 nM on α1d-AR and 2.2 nM at α1a-AR.

In the case of `COc1ccccc1N1CCN(Cc2cccc(CN3CCCCC3=O)n2)CC1` [compound 54], the half-maximal inhibitory concentration (IC50) was found to be 3.02 µM on α1b-AR, 500 nM at α1d-AR and 1730 nM on α1a-AR.

In the case of `CC(C)Oc1ccccc1N1CCN(Cc2cccc(CN3C(=O)CCC3=O)n2)CC1` [compound 46], the IC50 on α1b-AR turned out to be 1.75 µM; at α1d-AR, 174 nM; on α1a-AR, 69 nM.

Consider `COc1ccccc1N1CCN(Cc2ccc(CN3CCCCC3CO)s2)CC1` (centres unmarked) [compound 50], for which the IC50 on α1b-AR was over 5.14 µM; at α1d-AR it was 261 nM; on α1a-AR, 838 nM.

On to `COc1ccccc1N1CCN(Cc2cccc(CN3CCC3=O)n2)CC1` [compound 41], for which the IC50 came to 3.17 µM on α1b-AR, 1680 nM at α1d-AR and 7630 nM at α1a-AR.

As for `O=C1CCCCCN1Cc1cc(CN2CCN(c3ccccc3Oc3ccccc3)CC2)on1` [compound 39], the half-maximal inhibitory concentration (IC50) on α1b-AR was over 10 µM; on α1d-AR it was 570 nM; at α1a-AR, 172 nM.

For the compound `COc1ccccc1N1CCN(Cc2ccc(CN3CCCCC3=O)s2)CC1` [compound 48], the IC50 on α1b-AR is over 10 µM; at α1d-AR it was 26 nM; at α1a-AR, 29 nM.

Turning to `CC(C)Oc1ccccc1N1CCN(Cc2cccc(CN3C(=O)CCCC3=O)n2)CC1` [compound 45], the IC50 on α1b-AR was 0.096 µM; at α1d-AR, 197 nM; at α1a-AR, 98 nM.

Turning to `COc1ccccc1N1CCN(Cc2ccc(CN3CCCCCC3=O)s2)CC1` [compound 49], the IC50 at α1b-AR is over 10 µM; on α1d-AR, 24 nM; on α1a-AR, 37 nM.

Turning to `CC(C)Oc1ccccc1N1CCN(Cc2cc(CN3CCCCC3=O)nc(N)n2)CC1` [Compound 4], the IC50 on α1b-AR is over 10 µM; at α1d-AR, over 10000 nM; at α1a-AR, 79 nM.

In the case of `CC(C)Oc1ccccc1N1CCN(Cc2cc(CN3CCCCC3=O)cs2)CC1` [compound 55], the IC50 came to 0.768 µM on α1b-AR, 185 nM at α1d-AR and 1 nM at α1a-AR.

As for `O=C1CCCN1Cc1cc(CN2CCN(c3ccccc3Oc3ccccc3)CC2)on1` [compound 38], the IC50 at α1b-AR was 4.41 µM; at α1d-AR, 341 nM; at α1a-AR, 30 nM.
